# Experimental data: patent publication US10391110B2, “Composition for preventing or treating vascular leak syndrome” (INTELLIGENT SYNTHETIC BIOLOGY CENTER, priority 2015, dated 2019)
# Assays:
# [1] = system: human umbilical vascular endothelial cells (HUVECs); experiment: tube formation assay in HUVECs; type: cell-based; details: 25 μM ginsenoside, 4 hours, vs DMSO negative control and VEGF-A positive control
# Method: (§1) The angiogenesis-promoting activities between human umbilical vascular endothelial cells (HUVECs) and human retinal microvascular endothelial cells (HRMECs) using 10 kinds of ginsenoside compounds (CK, Rh2, Rg3, Rb1, F2, Rd, Re, Rg1, Rh1, or F1). That is, HUVECs or HRMECs were cultured in an incubator (5% CO2 and 37° C.) using 2% FBS, EGM-2 (Lonza, Walkersville, Md., USA) medium. A 96-well plate was coated with Matrigel (BD Biosciences) for 1 hour. Then, HUVECs or HRMECs (10^4 cells/well, respectively), which were mixed with a 0.1% FBS-containing EBM-2 medium respectively treated with 25 μM of ginsenoside compounds (CK, Rh2, Rg3, Rb1, F2, Rd, Re, Rg1, Rh1, or F1), were seeded on the 96-well plate. After 4 hours of incubation, a tube formation assay was performed and the number of tubes formed was compared by microscopic observation and photographing (FIGS. 1a, 1b, 2a, and 2b). In particular, the cells cultured after treating with DMSO instead of ginsenoside were used as a negative control, and the cells cultured after treating with VEGF-A, which is known to promote angiogenesis, were used as a positive control.
# (§2) The HUVECs or HRMECs, which were cultured by the method of Example 1, were cultured after treating at various concentrations (12.5, 25, or 50 μM) of ginsenoside F1 or Rh1 selected from Example 1 for 4 hours, and the number of tubes formed was compared by performing a tube formation assay (FIGS. 3 and 4). In particular, the cells cultured after treating with DMSO instead of ginsenoside were used as a negative control and the cells cultured after treating with VEGF-A, which is known to promote angiogenesis, were used as a positive control.
# [2] = system: human retinal microvascular endothelial cells (HRMECs); experiment: tube formation assay in HRMECs; type: cell-based; details: 25 μM ginsenoside, 4 hours, vs DMSO negative control and VEGF-A positive control
# Method: as §1, §2
# HUVECs [3] = experiment: MTT cell proliferation assay in HUVECs; type: cell-based, human; details: 48 hours, concentrations 0, 3.125, 6.25, 12.5, or 25 μM
# Method: The HUVECs or HRMECs, which were cultured by the method of Example 1, were cultured after treating at various concentrations (0, 3.125, 6.25, 12.5, or 25 μM) of three kinds of ginsenosides (F1, Rh1, or Rg1), which were confirmed to promote tube formation in Example 1, for 48 hours, and the level of cell proliferation was compared by performing the MTT assay with respect to the cultured cells (FIGS. 5 and 6). In particular, the cells cultured after treating with DMSO instead of ginsenoside were used as a negative control, and the cells cultured after treating with VEGF-A, which is known to promote angiogenesis, were used as a positive control.
# HUVECs [4] = experiment: vascular permeability assay, VEGF-A-treated HUVECs; type: cell-based, human; details: for vascular leakage induced by VEGF-A: HUVECs pretreated with 25 μM ginsenoside for 1 hour, then VEGF-A; for level of vascular leakage, pretreatment plus VEGF-A compared to ginsenoside alone: HUVECs, 25 μM ginsenoside pretreatment 1 hour then VEGF-A vs ginsenoside alone
# Method: The HUVECs, cultured by a method described in Example 1, were pretreated with 25 μM ginsenoside F1 or Rh1 for 1 hour selected from Example 1, treated with VEGF-A, and then subjected to a vascular permeability assay (FIG. 9). In particular, the cells cultured after treating with DMSO instead of ginsenoside were used as a negative control; the cells cultured after treating with VEGF-A, which is known to promote angiogenesis, were used as a positive control; and the cells pretreated with ginsenoside F1 or Rh1 and not treated with VEGF-A were used as a comparative group.
# ICR mice = experiment: VEGF-A-induced vascular leakage in mouse ears (Evans blue); type: in vivo; details: ear intradermal 10 μL, ginsenoside 1.25 μM with VEGF-A 250 μg, 30 minutes
# Method: Seven-week-old male ICR mice were injected with 1% Evans blue dye (200 μL) into the tail vein and allowed to react for 10 minutes to dye the blood in blue.
# Then, the mice were intradermally injected in an amount of 10 μL through the ears with PBS (negative control), VEGF-A (250 μg, positive control), ginsenoside F1 (1.25 μM), ginsenoside Rh1 (1.25 μM), VEGF-A (250 μg)/ginsenoside F1 (1.25 μM), or VEGF-A (250 μg)/ginsenoside Rh1 (1.25 μM), respectively.
# Thirty minutes thereafter, the mice were subjected to euthanasia and their ears were removed. After confirming the amount of blood leakage by the naked eye (FIG. 10A), the ears were put in formamide and fixed at 37° C. for 24 hours. Then, the effects of F1 or Rh1 on the inhibition of blood leakage were quantitatively evaluated by measuring the absorbance at 620 nm (FIG. 10B).
Compound,number of tubes formed (tube formation) [1],number of tubes formed (tube formation) [2],promotion of cell proliferation (HUVECs [3]),vascular leakage induced by VEGF-A (HUVECs [4]),"level of vascular leakage, pretreatment plus VEGF-A compared to ginsenoside alone (HUVECs [4])","vascular leakage symptoms induced by VEGF-A (Evans blue, absorbance at 620 nm) (ICR mice)"
ginsenoside Rb2,effect of inhibiting tube formation,effect of inhibiting tube formation,,,,
"CC(C)=CCCC(C)(O)C1CCC2(C)C1C(O)CC1C3(C)CCC(O)C(C)(C)C3C(OC3OC(CO)C(O)C(O)C3O)CC12C [ginsenoside Rh1, 6-O-β-D-glucopyranoside-20(S)-protopanaxatriol]",effect of promoting tube formation at a higher level compared to that of the positive control,effect of promoting tube formation at a higher level compared to that of the positive control,about 100%,vascular leakage was inhibited by the pretreatment,further reduced compared to when the HUVECs were treated with ginsenoside F1 or Rh1 alone,effectively inhibit the vascular leakage symptoms induced by VEGF-A
CC(C)=CCC[C@](C)(O[C@@H]1O[C@H](CO)[C@@H](O)[C@H](O)[C@H]1O)[C@H]1CC[C@]2(C)[C@@H]1[C@H](O)C[C@@H]1[C@@]3(C)CC[C@H](O)C(C)(C)[C@@H]3[C@@H](O[C@@H]3O[C@H](CO)[C@@H](O)[C@H](O)[C@H]3O)C[C@]12C [ginsenoside Rg1],effect of promoting tube formation,effect of promoting tube formation,about 60%,,,
"CC(C)=CCCC(C)(OC1OC(CO)C(O)C(O)C1O)C1CCC2(C)C1C(O)CC1C3(C)CCC(O)C(C)(C)C3C(O)CC12C [ginsenoside F1, 20-O-β-D-glucopyranosyl-20(S)-protopanaxatriol]",effect of promoting tube formation at a higher level compared to that of the positive control,effect of promoting tube formation at a higher level compared to that of the positive control,about 20%,vascular leakage was inhibited by the pretreatment,further reduced compared to when the HUVECs were treated with ginsenoside F1 or Rh1 alone,effectively inhibit the vascular leakage symptoms induced by VEGF-A
CC(C)=CCC[C@](C)(O[C@@H]1O[C@H](CO)[C@@H](O)[C@H](O)[C@H]1O)[C@H]1CC[C@]2(C)[C@@H]1[C@H](O)C[C@@H]1[C@@]3(C)CC[C@H](O)C(C)(C)[C@@H]3CC[C@]12C [ginsenoside CK],effect of inhibiting tube formation,effect of inhibiting tube formation,,,,
CC(C)=CCC[C@](C)(O[C@@H]1O[C@H](CO)[C@@H](O)[C@H](O)[C@H]1O)[C@H]1CC[C@]2(C)[C@@H]1[C@H](O)C[C@@H]1[C@@]3(C)CC[C@H](O[C@@H]4O[C@H](CO)[C@@H](O)[C@H](O)[C@H]4O)C(C)(C)[C@@H]3CC[C@]12C [ginsenoside F2],did not show any noticeable difference,effect of promoting tube formation,,,,
CC(C)=CCC[C@](C)(O[C@@H]1O[C@H](CO)[C@@H](O)[C@H](O)[C@H]1O)[C@H]1CC[C@]2(C)[C@@H]1[C@H](O)C[C@@H]1[C@@]3(C)CC[C@H](O)C(C)(C)[C@@H]3[C@@H](O[C@@H]3O[C@H](CO)[C@@H](O)[C@H](O)[C@H]3O[C@@H]3O[C@@H](C)[C@H](O)[C@@H](O)[C@H]3O)C[C@]12C [ginsenoside Re],effect of promoting tube formation,effect of promoting tube formation,,,,
CC(C)=CCC[C@](C)(O[C@@H]1O[C@H](CO[C@@H]2O[C@H](CO)[C@@H](O)[C@H](O)[C@H]2O)[C@@H](O)[C@H](O)[C@H]1O)[C@H]1CC[C@]2(C)[C@@H]1[C@H](O)C[C@@H]1[C@@]3(C)CC[C@H](O[C@@H]4O[C@H](CO)[C@@H](O)[C@H](O)[C@H]4O[C@@H]4O[C@H](CO)[C@@H](O)[C@H](O)[C@H]4O)C(C)(C)[C@@H]3CC[C@]12C [ginsenoside Rb1],did not show any noticeable difference,effect of promoting tube formation,,,,
CC(C)=CCC[C@](C)(O[C@@H]1O[C@H](CO)[C@@H](O)[C@H](O)[C@H]1O)[C@H]1CC[C@]2(C)[C@@H]1[C@H](O)C[C@@H]1[C@@]3(C)CC[C@H](O[C@@H]4O[C@H](CO)[C@@H](O)[C@H](O)[C@H]4O[C@@H]4O[C@H](CO)[C@@H](O)[C@H](O)[C@H]4O)C(C)(C)[C@@H]3CC[C@]12C [ginsenoside Rd],effect of promoting tube formation,effect of promoting tube formation,,,,
CC(C)=CCC[C@](C)(O)[C@H]1CC[C@]2(C)[C@@H]1[C@H](O)C[C@@H]1[C@@]3(C)CC[C@H](O[C@@H]4O[C@H](CO)[C@@H](O)[C@H](O)[C@H]4O[C@@H]4O[C@H](CO)[C@@H](O)[C@H](O)[C@H]4O)C(C)(C)[C@@H]3CC[C@]12C [ginsenoside Rg3],effect of inhibiting tube formation,effect of inhibiting tube formation,,,,
